pKi: −log10 of the molar value. Read-outs that look alike come from different tables or passages of the source.
Legend:
[1] = target: Human α2δ-1 subunit of Cav2.2 calcium channel (Homo sapiens, UniProt P54289); experiment: Human α2δ-1 subunit of Cav2.2 calcium channel assay ([3H]-Gabapentin binding)
Protocol: Human α2δ-1 subunit of Cav2.2 calcium channel assay
Human α2δ-1 enriched membranes (2.5 µg) were incubated with 15 nM of radiolabeled [3H]-Gabapentin in assay buffer containing Hepes-KOH 10mM, pH 7.4. NSB (non specific binding) was measured by adding 10 µM pregabalin. The binding of the test compound was measured at either one concentration (% inhibition at 1 or 10 µM) or five different concentrations to determine affinity values (Ki). After 60 min incubation at 27 °C, binding reaction was terminated by filtering through Multiscreen GF/C (Millipore) presoaked in 0.5 % polyethyleneimine in Vacuum Manifold Station, followed by 3 washes with ice-cold filtration buffer containing 50 mM Tris-HCl, pH 7.4. Filter plates were dried at 60 °C for 1 hour and 30 µl of scintillation cocktail were added to each well before radioactivity reading. Readings were performed in a Trilux 1450 Microbeta radioactive counter (Perkin Elmer).

Human µ-opioid receptor = target: T1, Human µ-opioid receptor (Homo sapiens, UniProt P35372); experiment: Human µ-opioid receptor radioligand assay ([3H]-DAMGO); format: binding
T1 construct: expressed in transfected cells; host or cells: CHO-K1
Protocol: Human µ-opioid receptor radioligand assay
Transfected CHO-K1 cell membranes (20 µg) were incubated with [^3H]-DAMGO (1 nM) in assay buffer containing Tris-HCl 50 mM, MgCl2 5 mM at pH 7.4. NBS (non-specific binding) was measured by adding 10 µM Naloxone. The binding of the test compound was measured at either one concentration (% inhibition at 1 or 10 µM) or five different concentrations to determine affinity values (Ki). Plates were incubated at 27 °C for 60 min. After the incubation period, the reaction mixture was then transferred to MultiScreen HTS, FC plates (Millipore), filtered and plates were washed 3 times with ice-cold 10 mM Tris-HCl (pH 7.4). Filters were dried and counted at approximately 40% efficiency in a MicroBeta scintillation counter (Perkin-Elmer) using EcoScint liquid scintillation cocktail.

[2] = transfected CHO-K1 cell membranes, [3H]-DAMGO 1 nM, read-out: µ-binding
[3] = human α2δ-1 enriched membranes, [3H]-Gabapentin 15 nM, read-out: α2δ-1 binding

T1 sequence (P35372 whole entry): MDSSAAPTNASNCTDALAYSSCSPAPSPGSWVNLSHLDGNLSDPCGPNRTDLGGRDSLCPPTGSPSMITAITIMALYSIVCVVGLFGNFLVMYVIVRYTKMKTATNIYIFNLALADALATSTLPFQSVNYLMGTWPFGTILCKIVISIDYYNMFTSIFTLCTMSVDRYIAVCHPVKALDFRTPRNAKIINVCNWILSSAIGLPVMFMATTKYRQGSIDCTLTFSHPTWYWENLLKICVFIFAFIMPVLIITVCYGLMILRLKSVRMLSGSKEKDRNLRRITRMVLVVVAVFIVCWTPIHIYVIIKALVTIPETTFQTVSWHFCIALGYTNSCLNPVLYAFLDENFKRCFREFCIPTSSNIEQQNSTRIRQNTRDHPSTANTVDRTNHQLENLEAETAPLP
Human α2δ-1 subunit of Cav2.2 calcium channel, sequence (P54289 25-1103): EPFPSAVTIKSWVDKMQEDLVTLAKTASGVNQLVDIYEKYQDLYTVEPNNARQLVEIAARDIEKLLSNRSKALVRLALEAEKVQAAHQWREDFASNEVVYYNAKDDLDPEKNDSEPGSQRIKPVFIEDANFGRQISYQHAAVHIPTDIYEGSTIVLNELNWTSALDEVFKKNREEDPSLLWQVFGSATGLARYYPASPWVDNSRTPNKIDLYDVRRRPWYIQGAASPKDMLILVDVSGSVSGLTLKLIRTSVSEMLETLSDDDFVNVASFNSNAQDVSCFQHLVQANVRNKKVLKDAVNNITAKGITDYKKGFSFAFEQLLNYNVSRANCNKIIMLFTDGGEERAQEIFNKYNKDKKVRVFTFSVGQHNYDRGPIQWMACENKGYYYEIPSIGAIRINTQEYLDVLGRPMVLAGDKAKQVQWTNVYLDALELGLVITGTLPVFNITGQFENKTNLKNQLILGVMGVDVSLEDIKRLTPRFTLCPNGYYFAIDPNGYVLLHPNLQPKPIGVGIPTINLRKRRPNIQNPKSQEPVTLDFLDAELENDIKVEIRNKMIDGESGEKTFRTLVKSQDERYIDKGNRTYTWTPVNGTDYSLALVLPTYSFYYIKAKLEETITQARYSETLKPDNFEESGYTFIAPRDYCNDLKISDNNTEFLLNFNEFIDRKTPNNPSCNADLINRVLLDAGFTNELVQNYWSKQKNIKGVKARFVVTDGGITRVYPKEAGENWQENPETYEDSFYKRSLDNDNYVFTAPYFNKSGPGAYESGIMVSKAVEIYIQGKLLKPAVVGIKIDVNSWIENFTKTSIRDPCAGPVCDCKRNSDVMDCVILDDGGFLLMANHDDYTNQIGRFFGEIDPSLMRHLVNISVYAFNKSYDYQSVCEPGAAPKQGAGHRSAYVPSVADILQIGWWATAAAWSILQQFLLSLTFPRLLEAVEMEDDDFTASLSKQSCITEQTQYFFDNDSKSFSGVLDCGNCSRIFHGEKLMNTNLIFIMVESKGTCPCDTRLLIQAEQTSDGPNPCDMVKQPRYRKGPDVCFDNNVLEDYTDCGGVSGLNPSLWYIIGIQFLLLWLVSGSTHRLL

| SMILES | pKi [1] | pKi (Human µ-opioid receptor; [2]) | pKi [1, 3] | pKi (Human µ-opioid receptor) |
| --- | --- | --- | --- | --- |
| CCC[C@H](c1nc2ccc(CN3CCC(c4cccc(O)c4)(N(C)C)CC3)cc2nc1CC)N1C[C@@H](C)N[C@@H](C)C1 [Example 41, 3-(4-(Dimethylamino)-1-((2-((R)-1-((3S,5R)-3,5-dimethylpiperazin-1-yl)butyl)-3-ethylquinoxalin-6-yl)methyl)piperidin-4-yl)phenol] | > 6.30 | > 7.00 |  |  |
| CCC[C@H](c1cnc2cc(CN3CCC(c4cccc(O)c4)(N(C)C)CC3)ccc2c1)N1C[C@@H](C)N[C@@H](C)C1 [Example 8, 3-(4-(Dimethylamino)-1-((3-((R)-1-((3S,5R)-3,5-dimethylpiperazin-1-yl)butyl)quinolin-7-yl)methyl)piperidin-4-yl)phenol] | > 6.30 | > 7.00 |  |  |
| CCC[C@@H](c1cnc2cc(CN3CCC(c4cccc(O)c4)(N(C)C)CC3)ccc2c1)N1C[C@@H](C)N[C@@H](C)C1 [Example 9, 3-(4-(Dimethylamino)-1-((3-((S)-1-((3S,5R)-3,5-dimethylpiperazin-1-yl)butyl)quinolin-7-yl)methyl)piperidin-4-yl)phenol] |  |  | 5.30 to 6.30 | > 7.00 |
| CCCC(c1cnc2ccc(N3CCC(c4cccc(O)c4)(N(C)C)CC3)cc2c1)N1C[C@@H](C)N[C@@H](C)C1 (stereo partly drawn) [Example 14, 3-(4-(Dimethylamino)-1-(3-(1-((3S,5R)-3,5-dimethylpiperazin-1-yl)butyl)quinolin-6-yl)piperidin-4-yl)phenol] | > 6.30 | < 6.30 |  |  |
| CCC[C@@H](c1cnc2cc(N3CCC(c4cccc(O)c4)(N(C)C)CC3)ccc2c1)N1C[C@@H](C)N[C@@H](C)C1 [Example 5, 3-(4-(Dimethylamino)-1-(3-((S)-1-((3S,5R)-3,5-dimethylpiperazin-1-yl)butyl)quinolin-7-yl)piperidin-4-yl)phenol] |  |  | < 5.30 | > 7.00 |
| CCC[C@H](c1cnc2ccc(CN3CCC(c4cccc(O)c4)(N(C)C)CC3)cc2c1)N1C[C@@H](C)N[C@@H](C)C1 [Example 16, 3-(4-(Dimethylamino)-1-((3-((R)-1-((3S,5R)-3,5-dimethylpiperazin-1-yl)butyl)quinolin-6-yl)methyl)piperidin-4-yl)phenol] | > 6.30 | > 7.00 |  |  |
| CCC[C@@H](c1cnc2ccc(CN3CCC(c4ccccc4)(N(C)C)CC3)cc2c1)N1C[C@@H](C)N[C@@H](C)C1 [Example 19, 1-((3-((S)-1-((3S,5R)-3,5-Dimethylpiperazin-1-yl)butyl)quinolin-6-yl)methyl)-N,N-dimethyl-4-phenylpiperidin-4-amine] |  |  | < 5.30 | > 7.00 |
| CCC[C@H](c1cnc2ccc(CN3CCC(c4cccc(O)c4)(N(C)C)CC3)cc2n1)N1C[C@@H](C)N[C@@H](C)C1 [Example 38, 3-(4-(Dimethylamino)-1-((3-((R)-1-((3S,5R)-3,5-dimethylpiperazin-1-yl)butyl)quinoxalin-6-yl)methyl)piperidin-4-yl)phenol] | > 6.30 | > 7.00 |  |  |
| CCCC(c1cc2ccc(CN3CCC(c4cccc(O)c4)(N(C)C)CC3)cc2nc1CC)N1C[C@@H](C)N[C@@H](C)C1 (stereo partly drawn) [Example 21, 3-(4-(Dimethylamino)-1-((3-(1-((3S,5R)-3,5-dimethylpiperazin-1-yl)butyl)-2-ethylquinolin-7-yl)methyl)piperidin-4-yl)phenol] | > 6.30 | > 7.00 |  |  |
| CCC[C@@H](c1cnc2ccc(CN3CCC(c4cccc(O)c4)(N(C)C)CC3)cc2c1)N1C[C@@H](C)N[C@@H](C)C1 [Example 17, 3-(4-(Dimethylamino)-1-((3-((S)-1-((3S,5R)-3,5-dimethylpiperazin-1-yl)butyl)quinolin-6-yl)methyl)piperidin-4-yl)phenol] |  |  | < 5.30 | > 7.00 |
| CCCC(c1nc2ccc(CN3CCC(c4cccc(O)c4)(N(C)C)CC3)cc2nc1CC)N1C[C@@H](C)N[C@@H](C)C1 (stereo partly drawn) [Example 40, 3-(4-(Dimethylamino)-1-((2-(1-((3S,5R)-3,5-dimethylpiperazin-1-yl)butyl)-3-ethylquinoxalin-6-yl)methyl)piperidin-4-yl)phenol] | > 6.30 | > 7.00 |  |  |
| CCC[C@@H](c1cc2ccc(CN3CCC(c4cccc(O)c4)(N(C)C)CC3)cc2nc1CC)N1C[C@@H](C)N[C@@H](C)C1 [Example 24, 3-(4-(Dimethylamino)-1-((3-((S)-1-((3S,5R)-3,5-dimethylpiperazin-1-yl)butyl)-2-ethylquinolin-7-yl)methyl)piperidin-4-yl)phenol] |  |  | 5.30 to 6.30 | > 7.00 |
| CCC[C@@H](c1cnc2cc(CN3CCC(c4ccccc4)(N(C)C)CC3)ccc2c1)N1C[C@@H](C)N[C@@H](C)C1 [Example 13, 1-((3-((S)-1-((3S,5R)-3,5-Dimethylpiperazin-1-yl)butyl)quinolin-7-yl)methyl)-N,N-dimethyl-4-phenylpiperidin-4-amine] |  |  | < 5.30 | 6.30 to 7.00 |
| CCCC(c1cc2cc(CN3CCC(c4cccc(O)c4)(N(C)C)CC3)ccc2nc1CC)N1C[C@@H](C)N[C@@H](C)C1 (stereo partly drawn) [Example 22, 3-(4-(Dimethylamino)-1-((3-(1-((3S,5R)-3,5-dimethylpiperazin-1-yl)butyl)-2-ethylquinolin-6-yl)methyl)piperidin-4-yl)phenol] |  |  | 5.30 to 6.30 | > 7.00 |
| CCC[C@@H](c1ncc2cc(CN3CCC(c4cccc(O)c4)(N(C)C)CC3)ccc2n1)N1C[C@@H](C)N[C@@H](C)C1 [Example 30, 3-(4-(Dimethylamino)-1-((2-((S)-1-((3S,5R)-3,5-dimethylpiperazin-1-yl)butyl)quinazolin-6-yl)methyl)piperidin-4-yl)phenol] |  |  | < 5.30 | > 7.00 |
| CCC[C@H](c1ncc2cc(CN3CCC(c4cccc(O)c4)(N(C)C)CC3)ccc2n1)N1C[C@@H](C)N[C@@H](C)C1 [Example 29, 3-(4-(Dimethylamino)-1-((2-((R)-1-((3S,5R)-3,5-dimethylpiperazin-1-yl)butyl)quinazolin-6-yl)methyl)piperidin-4-yl)phenol] |  |  | 5.30 to 6.30 | > 7.00 |
| CCC[C@@H](c1cnc2ccc(N3CCC(c4cccc(O)c4)(N(C)C)CC3)cc2n1)N1C[C@@H](C)N[C@@H](C)C1 [Example 35, 3-(4-(Dimethylamino)-1-(3-((S)-1-((3S,5R)-3,5-dimethylpiperazin-1-yl)butyl)quinoxalin-6-yl)piperidin-4-yl)phenol] |  |  | 5.30 to 6.30 | 6.30 to 7.00 |
| CCC[C@@H](c1ncc2cc(N3CCC(c4cccc(O)c4)(N(C)C)CC3)ccc2n1)N1C[C@@H](C)N[C@@H](C)C1 [Example 27, 3-(4-(Dimethylamino)-1-(2-((S)-1-((3S,5R)-3,5-dimethylpiperazin-1-yl)butyl)quinazolin-6-yl)piperidin-4-yl)phenol] | < 5.30 | > 7.00 |  |  |
| CCCC(c1cnc2ccc(N3CCC(c4cccc(O)c4)(N(C)C)CC3)cc2n1)N1C[C@@H](C)N[C@@H](C)C1 (stereo partly drawn) [Example 33, 3-(4-(Dimethylamino)-1-(3-(1-((3S,5R)-3,5-dimethylpiperazin-1-yl)butyl)quinoxalin-6-yl)piperidin-4-yl)phenol] | > 6.30 | > 7.00 |  |  |
| CCC[C@H](c1cnc2ccc(N3CCC(c4cccc(O)c4)(N(C)C)CC3)cc2n1)N1C[C@@H](C)N[C@@H](C)C1 [Example 34, 3-(4-(Dimethylamino)-1-(3-((R)-1-((3S,5R)-3,5-dimethylpiperazin-1-yl)butyl)quinoxalin-6-yl)piperidin-4-yl)phenol] | > 6.30 | > 7.00 |  |  |

Source: EP3753932A1, “SUBSTITUTED BICYCLIC DERIVATIVES HAVING MULTIMODAL ACTIVITY AGAINST PAIN” (priority 2019, dated 2020)
